Data on 29 compounds can be found in patent US5399565A, “Pyrazolidinone CCK and gastrin antagonists and pharmaceutical formulations therof” (priority 1993, dated 1995).

For one test, the target named is T1, brain CCK receptor (Mus musculus, UniProt P56481).
T1 construct: from tissue; host or cells: forebrain membranes of male CF-1 mice
T1 sequence (P56481 1-453): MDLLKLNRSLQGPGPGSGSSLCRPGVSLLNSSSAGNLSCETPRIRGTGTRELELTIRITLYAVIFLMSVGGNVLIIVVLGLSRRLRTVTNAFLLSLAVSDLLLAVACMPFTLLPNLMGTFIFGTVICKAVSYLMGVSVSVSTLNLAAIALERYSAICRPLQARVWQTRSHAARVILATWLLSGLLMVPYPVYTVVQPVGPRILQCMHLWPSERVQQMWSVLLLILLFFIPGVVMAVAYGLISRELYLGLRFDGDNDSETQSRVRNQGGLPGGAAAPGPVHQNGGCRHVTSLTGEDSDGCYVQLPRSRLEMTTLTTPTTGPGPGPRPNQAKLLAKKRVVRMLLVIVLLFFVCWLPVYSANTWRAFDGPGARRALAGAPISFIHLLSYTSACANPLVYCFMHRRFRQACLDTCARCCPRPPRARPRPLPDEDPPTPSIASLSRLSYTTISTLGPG
Description: CCK receptor binding, mouse brain membranes (125I-CCK-8 sulfate). The settings on record: for inhibition at 10 µM / inhibition at 1 µM: read-out: Brain Percent Inhibition; for IC50: mouse brain membranes, read-out: Brain IC50. As to the method: Brain CCK receptor binding was performed using mouse brain membranes according to the method of Chang and Lotti (Proc. Natl. Acad. Sci. 83: 4923-4926, 1986). Male CF-1 mice, 23-25 g were sacrificed by cervical dislocation, the forebrain removed and placed in ice cold 50 mM Tris buffer, pH 7.4. The tissue was homogenized in 100 volumes of the Tris buffer with a Brinkman Polytron or Tekmar Tissumizer and then centrifuged at 40,000 g for 10 min. Pellets were resuspended in Tris buffer, centrifuged as above and then resuspended in 100 volumes of assay buffer, pH 6.5 (20 mM N-2-hydroxyethyl-piperazine-N'-2-ethane sulfonic acid (HEPES), 1 mM ethylene glycol his (2-aminoethyl ether-N,N,N',N'-tetraacetic acid) (EGTA), 5 mM MgCl2, 130 mM NaCl, and 0.25 mg/ml bacitracin). The binding assay consisted of 50 μL of compound (or buffer for total binding), 50 μL of ^125 I-CCK-8 sulfate (20 pM) (Amersham IM- 159), 200 μL of assay buffer and 200 μL of homogenate (80-120 μg protein). The samples were incubated at room temperature (25°) for 2 hours, and they were then filtered through GF/B glass fiber filters (soaked in wash buffer for 2 hours before use) using a 48 well Brandel cell harvester designed for receptor binding. The filters were washed twice with 3 ml of 50 mM Tris buffer, pH 7.4, containing 0.01% BSA and then counted for radioactivity in plastic tubes with a Micromedic 10/600 automatic gamma counter.
Compounds were dissolved in dimethyl sulfoxide (DMSO) at a concentration of 10 mM and then further diluted with assay buffer. The concentration of DMSO in the incubation was 0.1% or less and had no effect on the assay at that level. IC-50 values of displacement curves were determined using 7 concentrations of compound and were calculated using the ALLFIT computer program of DeLean, Munson and Rodbard (Am. J. Physiol. 235: E97-E102, 1978). Non-specific binding was determined as the displacement of the radioligand by 100 nM CCK-8 sulfate.

Test [1] has as its target T2, peripheral type CCK receptors in rat pancreas (Rattus norvegicus, UniProt P30551).
T2 construct: Pancreas was obtained from male Sprague-Dawley rats; from tissue; host or cells: pancreas membranes of male Sprague-Dawley rats
T2 sequence (P30551 1-444): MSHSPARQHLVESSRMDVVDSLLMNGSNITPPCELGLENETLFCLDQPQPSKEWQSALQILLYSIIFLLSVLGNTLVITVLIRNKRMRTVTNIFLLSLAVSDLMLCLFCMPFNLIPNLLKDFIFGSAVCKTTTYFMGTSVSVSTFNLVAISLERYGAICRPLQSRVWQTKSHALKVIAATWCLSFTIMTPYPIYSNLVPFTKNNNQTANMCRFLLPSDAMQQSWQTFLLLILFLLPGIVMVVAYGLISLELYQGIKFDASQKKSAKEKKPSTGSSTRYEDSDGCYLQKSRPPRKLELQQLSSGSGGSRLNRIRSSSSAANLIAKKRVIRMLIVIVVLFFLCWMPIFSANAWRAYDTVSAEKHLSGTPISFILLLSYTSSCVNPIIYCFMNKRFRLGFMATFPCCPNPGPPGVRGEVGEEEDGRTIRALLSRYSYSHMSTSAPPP
Description: Binding to peripheral type CCK receptors in rat pancreas (3H-L-364,718). The settings on record: at 10 μM; read-out: Pancreas Percent Inhibition. How it is done: Binding to peripheral type CCK receptors in rat pancreas was done according to the method of Chang et al. (Mol. Pharmacol. 30: 212-217, 1986) using ^3 H-L364, 718. Pancreas was obtained from male Sprague-Dawley rats, 150-200 g, after decapitation, and dissected free from adipose and connective tissue. The tissue was homogenized in 30 volumes of 50 mM Tris buffer, pH 7.4 and centrifuged at 40,000 g for 10 min. The tissue pellet was washed by resuspension and centrifugation as described above. The final pellet was suspended in 500 volumes of assay buffer (50 mM Tris buffer, pH 7.4, 5 mM MgCl2, 0.14 mg/ml bacitracin, and 5 mM dithiothreitol) to give a protein concentration of 30-60 μg/200 μl . Reagent volumes for the assay were the same as those used for CCK binding to brain membranes. Tritium labeled L-364,718 (Dupont NEN, NET-971) was used as the ligand at a concentration of 0.4-0.6 nM. The samples were incubated 1 hour at room temperature and then filtered as described for the CCK-brain receptor. Scintillation cocktail was added to the filters which were counted for radioactivity using a Micromedic Taurus automatic liquid scintillation counter.
Compound samples were prepared and IC-50 values were determined as described for the CCK-brain experiments. Non-specific binding was that amount left bound to the filters after adding 100 nM L-364,718.

Structures are written as SMILES.

One may read the inhibition as the relative decrease from the control value, in per cent. Turning to `O=C1NN(C(=O)Cc2cccc(C(F)(F)F)c2)[C@H](c2ccccc2)[C@H]1c1ccccc1` (relative stereo) [Example 76], the results for the inhibition at 10 µM (on brain CCK receptor; in test [1]) were 55% and 4%, respectively.

Broadly, the IC50 is the point on the concentration scale where inhibition reaches its midpoint. Regarding `O=C1NN(C(=O)NCCc2ccccc2)[C@@H](c2ccccc2)[C@@H]1c1ccccc1` (relative stereo) [Example 105], the IC50 at brain CCK receptor was determined as 490 nM. Further, in test [1], the inhibition at 10 µM turned out to be 43%.

`CC(C)C1C(c2ccccc2)C(=O)NN1C(=O)Nc1ccc(Br)cc1` (stereo not shown) [Example 73]: the inhibition at 10 µM at brain CCK receptor was found to be 16%; in test [1], 20%.

As to `CCc1ccc(NC(=O)N2NC(=O)[C@@H](c3ccccc3)[C@@H]2c2ccccc2)cc1` (relative stereo) [Example 26], the half-maximal inhibitory concentration (IC50) at brain CCK receptor came out at 75 nM. Besides, the inhibition at 10 µM in test [1] stood at 47%.

`O=C1NN(C(=O)Nc2ccc(Br)cc2)C(c2ccc([N+](=O)[O-])cc2)C1c1ccccc1` (stereo not shown) [Example 119]: the IC50 on brain CCK receptor came out at 1200 nM. Also, in test [1], the inhibition at 10 µM was determined as 64%.

For `O=C1NN(C(=O)Sc2ccc(Br)cc2)[C@@H](c2ccccc2)[C@@H]1c1ccccc1` (relative stereo) [Example 81], the inhibition at 10 µM worked out at 95% on brain CCK receptor and 59% in test [1].

With `O=C1NN(C(=O)Oc2ccccc2)[C@@H](c2ccccc2)[C@@H]1c1ccccc1` (relative stereo) [Example 79], the inhibition at 10 µM was 43% on brain CCK receptor and 9% in test [1].

With `C[C@@H](NC(=O)N1NC(=O)C(c2ccccc2)C1c1ccccc1)c1cccc2ccccc12` (stereo partly shown) [Example 104], the IC50 on brain CCK receptor was determined as 900 nM. Moreover, the inhibition at 10 µM in test [1] is 47%.

Regarding `O=C1NN(C(=O)Nc2ccc(Cl)c([N+](=O)[O-])c2)[C@H](c2ccccc2)[C@H]1c1ccccc1` (relative stereo) [Example 48], the IC50 on brain CCK receptor worked out at 80 nM. Further, in test [1], the inhibition at 10 µM was found to be 98%.

Regarding `CN1C(=O)[C@H](c2ccccc2)[C@@H](c2ccccc2)N1C(=O)Nc1cccc(Cl)c1Cl` (relative stereo) [Example 66], the inhibition at 10 µM at brain CCK receptor is 40%; in test [1], 23%.

As for `C[C@@H](NC(=O)N1NC(=O)C(c2ccccc2)C1c1ccccc1)c1ccccc1` (stereo partly shown) [Example 102], on brain CCK receptor, the IC50 was found to be 4700 nM. Besides, in test [1], the inhibition at 10 µM worked out at 11%.

Consider `O=C1NN(C(=O)Nc2ccccc2C(F)(F)F)[C@H](c2ccccc2)[C@H]1c1ccccc1` (relative stereo) [Example 53], for which the concentration for half-maximal inhibition (IC50) at brain CCK receptor is 1200 nM. Besides, the inhibition at 10 µM in test [1] is 17%.

With `O=C1NN(C(=O)Nc2cc(Cl)cc(Cl)c2)[C@H](c2ccccc2)[C@H]1c1ccccc1` (relative stereo) [Example 59], on brain CCK receptor, the inhibition at 1 µM is 44%. In addition, in test [1], the inhibition at 10 µM was 75%.

As to `CC(C)Oc1cccc(NC(=O)N2NC(=O)[C@H](c3ccccc3)[C@H]2c2ccccc2)c1` (relative stereo) [Example 43], the half-inhibitory concentration (IC50) on brain CCK receptor worked out at 230 nM. Also, the inhibition at 10 µM in test [1] came out at 24%.

`O=C1NN(C(=O)Nc2cc(C(F)(F)F)cc(C(F)(F)F)c2)[C@H](c2ccccc2)[C@H]1c1ccccc1` (relative stereo) [Example 58]: on brain CCK receptor, the inhibition at 1 µM was 10%. The inhibition at 10 µM in test [1] was 85%.

On to `O=C1NN(C(=O)Nc2cccc(OCc3ccccc3)c2)[C@H](c2ccccc2)[C@H]1c1ccccc1` (relative stereo) [Example 44], for which the 50% inhibitory concentration (IC50) at brain CCK receptor is 260 nM. For the same compound, in test [1], the inhibition at 10 µM was 67%.

As for `O=C1NN(C(=O)c2ccc(Cl)c(Cl)c2)[C@H](c2ccccc2)[C@H]1c1ccccc1` (relative stereo) [Example 75], the inhibition at 10 µM stood at 60% at brain CCK receptor and 40% in test [1].

On to `CC(=O)c1ccc(NC(=O)N2NC(=O)[C@@H](c3ccccc3)[C@@H]2c2ccccc2)cc1` (relative stereo) [Example 23], for which the 50% inhibitory concentration (IC50) on brain CCK receptor was found to be 490 nM. Besides, the inhibition at 10 µM in test [1] was found to be 23%.

On to `O=C1NN(c2nc3ccccc3o2)[C@@H](c2ccccc2)[C@@H]1c1ccccc1` (relative stereo) [Example 87], for which the results for the inhibition at 10 µM (at brain CCK receptor; in test [1]) were 47% and 23%, respectively.

As to `O=C1NN(C(=O)Nc2ccc(OCCc3ccccc3)cc2)[C@@H](c2ccccc2)[C@@H]1c1ccccc1` (relative stereo) [Example 36], the IC50 at brain CCK receptor worked out at 450 nM. For the same compound, in test [1], the inhibition at 10 µM came to 33%.

`O=C1NN(C(=O)Nc2ccc(I)cc2)[C@@H](c2ccccc2)[C@@H]1c1ccccc1` (relative stereo) [Example 21]: at brain CCK receptor, the IC50 turned out to be 57 nM. Further, in test [1], the inhibition at 10 µM is 77%.

Regarding `O=C1NN(C(=O)Nc2cccc([N+](=O)[O-])c2)[C@H](c2ccccc2)[C@H]1c1ccccc1` (relative stereo) [Example 40], the 50% inhibitory concentration (IC50) at brain CCK receptor was 750 nM. The inhibition at 10 µM in test [1] stood at 38%.

`O=C1NN(C(=O)Nc2cccnc2)[C@@H](c2ccccc2)[C@@H]1c1ccccc1` (relative stereo) [Example 88]: the inhibition at 10 µM amounted to 40% on brain CCK receptor and 37% in test [1].

Take `CCCCc1ccc(NC(=O)N2NC(=O)[C@@H](c3ccccc3)[C@@H]2c2ccccc2)cc1` (relative stereo) [Example 28]: the IC50 at brain CCK receptor is 440 nM. Also, the inhibition at 10 µM in test [1] worked out at 55%.

With `COc1ccc(NC(=O)N2NC(=O)[C@H](c3ccccc3)[C@H]2c2ccccc2)cc1OC` (relative stereo) [Example 51], the inhibition at 1 µM on brain CCK receptor was 18%. The inhibition at 10 µM in test [1] was 25%.

On to `O=C(Nc1ccc(C(F)(F)F)cc1)N1N[C@@H](c2ccccc2)[C@H](c2ccccc2)C1=O` (relative stereo) [Example 83], for which the inhibition at 1 µM at brain CCK receptor stood at 37%. For the same compound, in test [1], the inhibition at 10 µM is 12%.

Turning to `O=C1NN(C(=O)Nc2ccc(F)c(Cl)c2)[C@H](c2ccccc2)[C@H]1c1ccccc1` (relative stereo) [Example 47], at brain CCK receptor, the half-maximal inhibitory concentration (IC50) came out at 390 nM. In addition, the inhibition at 10 µM in test [1] amounted to 51%.

On to `CN(C)c1ccc(C2C(c3ccccc3)C(=O)NN2C(=O)Nc2ccc(C(F)(F)F)cc2)cc1` (stereo not shown) [Example 113], for which, on brain CCK receptor, the inhibition at 1 µM turned out to be 25%. Moreover, the inhibition at 10 µM in test [1] amounted to 21%.

Turning to `CCCCC1C(c2ccccc2)C(=O)NN1C(=O)Nc1cccc(C(F)(F)F)c1` (stereo not shown) [Example 70], on brain CCK receptor, the inhibition at 1 µM amounted to 13%. Also, the inhibition at 10 µM in test [1] was found to be 36%.
